pIC50: −log10 of the molar value. Where “and” joins values, the source holds several entries; their conditions need not be identical. Equal entries are not always repeated.

Series [1] has as its system SARS-CoV-2. The series is classed as cell-based.
For series [2], the target named is SARS-CoV-2 main protease Mpro (Severe acute respiratory syndrome coronavirus 2, UniProt P0DTD1). The series can be described thus: cell-based. The following applies: IC50 in inhibiting Mpro.
The test system of the next series is Vero E6 cells. The series can be described thus: Cytotoxicity, WST-1 cell proliferation assay. The series is classed as cell-based, African green monkey. Conditions: for concentration at which cytotoxic: Vero E6 cells.
In series [3] the test system is SARS-CoV-2. The series can be described thus: Viral particle inactivation / time-of-addition, plaque assay on Vero E6 cells. The series is classed as cell-based.
A further series has as its system SARS-CoV-2 viral RNA. The series can be described thus: Viral RNA quantification by qRT-PCR in Vero cells and supernatant. It counts as cell-based. Conditions: 5 μM. On the technique in general: Real-time PCR tracks product formation cycle by cycle.
Series [4] concerns SARS-CoV-2. It counts as cell-based. The following applies: virus treated with 5 μM for 1 hour, MOI = 100, Vero E6.
In series [5] the test system is SARS-CoV-2. In words: Plaque assay on A549^ACE2 cells with ethacridine-treated virus. Conditions: 5 uM, 1 hr pre-incubation. The series is classed as cell-based.
Series [6] concerns SARS-CoV-2. The series is classed as cell-based. Conditions: 5 μM, 48 hours, anti-N and anti-S staining.
For series [7] the following is noted: 20 mg/kg, i.p. injection; cited from earlier work.
The conditions of series [8]: rat, mice and rabbits; cited from earlier work.

Regarding `C[C@@H](NCCCc1cccc(C(F)(F)F)c1)c1cccc2ccccc12` [Cinacalcet, cinacalcet], the “reduction in viral titer” value in the series on SARS-CoV-2 [1] is ~ 1 log.
A word on the pIC50: it is the IC50 on a negative log10 scale, so that one unit is a factor of ten. As for `CCOc1ccc2nc3cc(N)ccc3c(N)c2c1` [Ethacridine, ethacridine], in series [2], the pIC50 is ~5.45 and ~5.46. Besides, the “reduction in viral titer” value in the series with SARS-CoV-2 [1] was 5 – 6 log. In addition, in the series with Vero E6 cells (Vero E6 (Fig. 3e)), the cell toxicity entry was “very little cell toxicity”. In the series with SARS-CoV-2 [3] (5 μM, drug added after viral entry), the “reduction in viral titer, DMSO + Eth.” value is recorded as 3 – 4 logs. The “reduction in viral titer, Eth. + Eth.” value in the series with SARS-CoV-2 [3] (5 μM, drug present continuously prior to plaque assay, versus DMSO + DMSO) was 3 – 4 logs; with SARS-CoV-2 [3] (5 μM, plaque assay) it was 2400 fold. Moreover, the “reduction in infectivity, Eth. [1 hr]” value with SARS-CoV-2 [3] (virus pre-incubated with drug 1 hr, plaque assay without drug) is 3 – 4 logs. Also, the “change of viral RNA (vRNA) levels, DMSO + Eth.” value in the series on SARS-CoV-2 viral RNA (drug added after binding and entry, supernatant and cells) is “no change”. Also, in the series on SARS-CoV-2 viral RNA (drug present continuously, supernatant and within the cells), the “reduction in vRNA copies, Eth. + Eth.” value was 4 – 5 fold. In addition, in the series on SARS-CoV-2 [4], the “detectable anti-N and anti-S fluorescence on cells” value is listed as “dramatic reduction”. In addition, in the series with SARS-CoV-2 [5], the “infectivity of drug-treated virus on A549^ACE2 cells” value was “dramatic decrease in infectivity”. Besides, the “proportion of infected primary nasal cells” value in the series with SARS-CoV-2 [6] is recorded as “dramatically decreased”. Also, the toxicity in mice entry in series [7] is reported as “no toxicity”. The “toxicity in animal models” value in [8] is listed as “non-toxic”.
As to `CC(=O)[C@@]1(O)CC[C@H]2[C@@H]3CCC4=CC(=O)CC[C@]4(C)[C@H]3CC[C@@]21C` [Hydroxyprogesterone, hydroxyprogesterone], the “reduction in viral titer” value in the series with SARS-CoV-2 [1] is listed as ~ 1 log.
`CCC(CC)COC(=O)[C@H](C)N[P@](=O)(OC[C@H]1O[C@@](C#N)(c2ccc3c(N)ncnn23)[C@H](O)[C@@H]1O)Oc1ccccc1` [Remdesivir, remdesivir]: the “reduction in viral titer” value in the series with SARS-CoV-2 [1] is ~ 4 log.
Turning to `COc1ccc2c(O[C@@H]3C[C@H]4C(=O)N[C@]5(C(=O)NS(=O)(=O)C6CC6)C[C@H]5/C=C\CCCCN(C)C(=O)[C@@H]4C3)cc(-c3nc(C(C)C)cs3)nc2c1C` [Simeprevir, simeprevir], in the series with SARS-CoV-2 [1], the “reduction in viral titer” value is reported as ~ 4 log.
Regarding `O=c1c2ccccc2[se]n1-c1ccccc1` [ebselen], the “reduction in viral titer” value in the series on SARS-CoV-2 [1] is listed as ~ 2 log.
For ivermectin, the “concentration at which cytotoxic” value with Vero E6 cells was 5 to 13 µM.
As to verteporfin, the “concentration at which cytotoxic” value with Vero E6 cells lay in the range of 5 to 13 µM.

These data come from paper PMC7605555 (bioRxiv, 2020).
